In this experiment the target is T1, KCC3 (Homo sapiens, UniProt Q9UHW9).
T1 construct: expressed in transfected cells; host or cells: HEK-293
T1 sequence (Q9UHW9 1-1150): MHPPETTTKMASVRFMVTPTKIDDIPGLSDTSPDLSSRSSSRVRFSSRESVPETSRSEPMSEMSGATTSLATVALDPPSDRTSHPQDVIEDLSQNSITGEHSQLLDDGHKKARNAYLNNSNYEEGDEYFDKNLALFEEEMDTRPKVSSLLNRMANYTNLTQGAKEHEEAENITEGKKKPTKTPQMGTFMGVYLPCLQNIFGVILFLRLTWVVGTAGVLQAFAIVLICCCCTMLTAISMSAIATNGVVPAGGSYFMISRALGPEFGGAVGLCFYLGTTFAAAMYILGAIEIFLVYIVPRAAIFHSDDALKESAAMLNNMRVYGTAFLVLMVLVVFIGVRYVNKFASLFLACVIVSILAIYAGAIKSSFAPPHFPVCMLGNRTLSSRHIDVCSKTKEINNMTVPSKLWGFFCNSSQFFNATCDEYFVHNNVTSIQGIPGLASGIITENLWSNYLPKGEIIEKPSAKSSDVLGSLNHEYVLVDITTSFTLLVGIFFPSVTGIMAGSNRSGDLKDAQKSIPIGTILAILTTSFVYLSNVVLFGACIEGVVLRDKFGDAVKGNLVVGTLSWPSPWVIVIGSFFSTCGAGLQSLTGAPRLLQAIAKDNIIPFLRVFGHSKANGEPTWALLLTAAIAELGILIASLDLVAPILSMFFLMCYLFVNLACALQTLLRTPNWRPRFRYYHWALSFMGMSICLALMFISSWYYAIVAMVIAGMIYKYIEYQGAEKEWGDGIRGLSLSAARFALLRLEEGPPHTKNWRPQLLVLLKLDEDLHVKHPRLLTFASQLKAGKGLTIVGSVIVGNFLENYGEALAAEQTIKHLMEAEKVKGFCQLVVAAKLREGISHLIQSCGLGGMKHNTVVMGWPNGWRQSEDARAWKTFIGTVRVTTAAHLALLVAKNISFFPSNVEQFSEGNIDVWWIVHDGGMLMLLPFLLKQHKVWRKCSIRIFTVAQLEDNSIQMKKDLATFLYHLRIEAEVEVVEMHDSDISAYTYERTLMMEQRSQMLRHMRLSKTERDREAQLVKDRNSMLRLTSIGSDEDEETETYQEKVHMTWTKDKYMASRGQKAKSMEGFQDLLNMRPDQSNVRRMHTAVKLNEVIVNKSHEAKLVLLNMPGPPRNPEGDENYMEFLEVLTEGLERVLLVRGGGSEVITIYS
The experiment in a line: Tl+ assay, HEK-293 cells expressing KCC3. The format is cell-based. Particulars: read-out: concentration at which effects on KCC3 were seen (EC50 chart FIG. 1G). The protocol: FLIPR TI Flux assay. HEK-293 cells were washed with HBSS, and then incubated with loading buffer containing TI sensitive fluorescent dye (https://www.moleculardevices.com), 20 μM bumetanide 20 μM ouabain and 2.5 mM probenecid for 1 h at room temperature (RT) under control conditions or with drugs in the dark using a FlexStation 3 microplate reader (Molecular Devices) and imaged […] for 30 min. Stimulus buffer was added containing 5 mM K^+/0.5 mM Tl^+ and cells were imaged every 1.5 over a 190 second time course The initial rate Tl^+ uptake (Relative Fluorescence Units (RFU) per second) was determined following addition of the stimulus buffer as outlined previously (Conway et at, 2017, supra) (Lee et at, 2022, supra).
Several studies have shown that the activity and plasma membrane accumulation of KCC2 is potentiated via phosphorylation of S940, a process mediated by the activity of protein kinase C and protein phosphatase 1 (Lee et al., 2011, supra; Lee et al., J Biol Chem 282, 29777-29784 (2007); Moore et al., Proc. Natl. Acad. Sci. U.S.A. 115, 10166-10171 (2018); Moore et al., Trends Neurosci. 40, 555-571 (2017); Silayeva et al., Proc. Natl. Acad. Sci. U.S.A. 112, 3523-3528 (2015)). […] Compared to KCC2, effects on KCC3, KCC4, and NKCC1 were only seen at concentrations more than 35-fold that of KCC2 (>100 μM) (FIG. 1G).

Structures are written as SMILES.

As to `C[C@@H]1CN(c2nc3c(c(Nc4ccc(C5CCCCC5)cc4)n2)COC3)CCO1` [Compound A, (R)—N-(4-cyclohexylphenyl)-2-(2-methylmorpholino)-5,7-dihydrofuro[3,4-d]pyrimidin-4-amine], the EC50 was over 100 µM.

Source of the values: patent publication US20250281497A1, “FUSED AMINO PYRIMIDINE COMPOUNDS FOR TREATMENT OF SEIZURE DISORDERS” (Ovid Therapeutics Inc., priority 2024, published 2025).
